Compound in one assay: O=c1[nH]cc(F)c(=O)[nH]1 [FLUOROURACIL]
Briefly: surviving fraction relative to DMSO-only wells; higher = less growth inhibition. The following applies: exposure time: 5 days. Put shortly: (§1)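 Five days of continuous inhibitor exposure, at 0.5, 1, 5, 10, 50, 100, 500 and 1000 nM, followed a 24-hour period after log-phase tumour cell lines were seeded at 250–500 cells per well in 384-well plates. Surviving fraction was derived from CellTiter-Glo luminescence relative to the median of DMSO-only wells. Plates were read after 10 minutes at room temperature, and lines screened three times were kept only if replicate Pearson r >0.7 and median Z' >0.3.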

Compound in another assay: CC[C@@H](C(=O)[C@@H](C)[C@@H](O)[C@H](C)[C@@H]1O[C@@H]([C@@H](CC)C(=O)O)CC[C@@H]1C)[C@H]1O[C@]2(C=C[C@@H](O)[C@]3(CC[C@@](C)([C@H]4CC[C@](O)(CC)[C@H](C)O4)O3)O2)[C@H](C)C[C@@H]1C [SALINOMYCIN]
Described as above. The settings on record: exposure time: 5 days. Summed up: as §1

± gives the standard deviation of the averaged measurements.

With SG43 HEADNECK, the surviving fraction in the assay with FLUOROURACIL (0.5 nM) stood at 1.07 ± 0.14; in the assay with FLUOROURACIL (1 nM) it was 0.991 ± 0.21; with FLUOROURACIL (5 nM), 0.979 ± 0.25; in the assay with FLUOROURACIL (10 nM) it was 1.06 ± 0.3; with FLUOROURACIL (50 nM), 1.1 ± 0.22; with FLUOROURACIL (100 nM), 0.905 ± 0.073. In addition, the surviving fraction with FLUOROURACIL (500 nM) is 0.977 ± 0.088; in the assay with FLUOROURACIL (1000 nM) it was 0.879 ± 0.054; in the assay with SALINOMYCIN (0.5 nM), 0.921 ± 0.12; in the assay with SALINOMYCIN (1 nM), 1.2 ± 0.14; with SALINOMYCIN (5 nM) it was 0.776 ± 0.14; in the assay with SALINOMYCIN (10 nM), 1.05 ± 0.13. Also, the surviving fraction with SALINOMYCIN (50 nM) amounted to 0.954 ± 0.14; in the assay with SALINOMYCIN (100 nM), 1.16 ± 0.13; in the assay with SALINOMYCIN (500 nM) it was 0.459 ± 0.023; with SALINOMYCIN (1000 nM) it was 0.285 ± 0.11.
SIHA CERVIX: the surviving fraction was 1.01 ± 0.043 with FLUOROURACIL (0.5 nM); 0.989 ± 0.052 with FLUOROURACIL (1 nM); 1.06 ± 0.011 with FLUOROURACIL (5 nM); 1.08 ± 0.066 with FLUOROURACIL (10 nM); 0.999 ± 0.051 with FLUOROURACIL (50 nM); 0.957 ± 0.073 with FLUOROURACIL (100 nM). Moreover, the surviving fraction is 0.915 ± 0.13 with FLUOROURACIL (500 nM); 1.02 ± 0.097 with FLUOROURACIL (1000 nM); 0.875 ± 0.013 with SALINOMYCIN (0.5 nM); 0.878 ± 0.011 in the assay with SALINOMYCIN (1 nM); 0.935 ± 0.073 with SALINOMYCIN (5 nM); 0.967 ± 0.047 with SALINOMYCIN (10 nM). Also, the surviving fraction in the assay with SALINOMYCIN (50 nM) was determined as 0.9557 ± 0.0072; in the assay with SALINOMYCIN (100 nM), 0.928 ± 0.052; in the assay with SALINOMYCIN (500 nM) it was 0.513 ± 0.038; with SALINOMYCIN (1000 nM), 0.419 ± 0.014.
SJSA1 BONE: the surviving fraction with FLUOROURACIL (0.5 nM) was found to be 1.19 ± 0.1; with FLUOROURACIL (1 nM) it was 1.6 ± 0.092; with FLUOROURACIL (5 nM) it was 1.59 ± 0.11; in the assay with FLUOROURACIL (10 nM) it was 1.52 ± 0.2; with FLUOROURACIL (50 nM) it was 0.135 ± 0.008; with FLUOROURACIL (100 nM), 0.823 ± 0.018. For the same test system, the surviving fraction in the assay with FLUOROURACIL (500 nM) came out at 1.44 ± 0.026; with FLUOROURACIL (1000 nM), 0.116 ± 0.001; in the assay with SALINOMYCIN (0.5 nM), 1 ± 0.033; with SALINOMYCIN (1 nM), 0.992 ± 0.011; in the assay with SALINOMYCIN (5 nM), 1.02 ± 0.041; with SALINOMYCIN (10 nM) it was 1 ± 0.033. In addition, the surviving fraction with SALINOMYCIN (50 nM) was 1.02 ± 0.023; in the assay with SALINOMYCIN (100 nM) it was 0.966 ± 0.023; with SALINOMYCIN (500 nM), 0.404 ± 0.041; with SALINOMYCIN (1000 nM), 0.27 ± 0.043.
As to SKBR3 BREAST, the surviving fraction with FLUOROURACIL (0.5 nM) amounted to 0.988 ± 0.088; with FLUOROURACIL (1 nM), 0.894 ± 0.085; with FLUOROURACIL (5 nM), 1.03 ± 0.074; in the assay with FLUOROURACIL (10 nM), 0.986 ± 0.015; with FLUOROURACIL (50 nM), 0.792 ± 0.059; in the assay with FLUOROURACIL (100 nM), 0.741 ± 0.11. Besides, the surviving fraction is 0.901 ± 0.11 with FLUOROURACIL (500 nM); 0.787 ± 0.018 with FLUOROURACIL (1000 nM); 1 ± 0.13 with SALINOMYCIN (0.5 nM); 1.09 ± 0.2 with SALINOMYCIN (1 nM); 0.927 ± 0.12 with SALINOMYCIN (5 nM); 0.997 ± 0.051 in the assay with SALINOMYCIN (10 nM). For the same test system, the surviving fraction in the assay with SALINOMYCIN (50 nM) worked out at 1.05 ± 0.12; in the assay with SALINOMYCIN (100 nM), 0.98 ± 0.17; in the assay with SALINOMYCIN (500 nM) it was 0.238 ± 0.025; with SALINOMYCIN (1000 nM), 0.109 ± 0.015.
SNU475 LIVER: the surviving fraction with FLUOROURACIL (0.5 nM) was 1 ± 0.058; with FLUOROURACIL (1 nM), 0.982 ± 0.018; with FLUOROURACIL (5 nM) it was 0.99 ± 0.046; with FLUOROURACIL (10 nM), 0.9607 ± 0.0047; with FLUOROURACIL (50 nM) it was 0.886 ± 0.021; in the assay with FLUOROURACIL (100 nM) it was 0.892 ± 0.025. For the same test system, the surviving fraction with FLUOROURACIL (500 nM) came out at 0.826 ± 0.081; with FLUOROURACIL (1000 nM), 0.741 ± 0.066; in the assay with SALINOMYCIN (0.5 nM) it was 0.974 ± 0.027; with SALINOMYCIN (1 nM) it was 0.86 ± 0.032; with SALINOMYCIN (5 nM), 0.952 ± 0.029; in the assay with SALINOMYCIN (10 nM), 0.423 ± 0.0047. The surviving fraction with SALINOMYCIN (50 nM) came out at 1.04 ± 0.036; with SALINOMYCIN (100 nM), 0.871 ± 0.033; with SALINOMYCIN (500 nM), 0.46 ± 0.046; with SALINOMYCIN (1000 nM) it was 0.31 ± 0.018.
As to SUM44 BREAST, the surviving fraction with FLUOROURACIL (0.5 nM) stood at 1.03 ± 0.23; in the assay with FLUOROURACIL (1 nM), 0.958 ± 0.17; with FLUOROURACIL (5 nM), 1.02 ± 0.16; with FLUOROURACIL (10 nM), 0.956 ± 0.12; in the assay with FLUOROURACIL (50 nM), 1.05 ± 0.12; with FLUOROURACIL (100 nM), 0.788 ± 0.041. Also, the surviving fraction with FLUOROURACIL (500 nM) turned out to be 0.982 ± 0.05; with FLUOROURACIL (1000 nM), 0.726 ± 0.07; with SALINOMYCIN (0.5 nM), 0.967 ± 0.033; with SALINOMYCIN (1 nM), 0.959 ± 0.021; with SALINOMYCIN (5 nM), 0.995 ± 0.042; with SALINOMYCIN (10 nM) it was 0.992 ± 0.017. The surviving fraction is 1.01 ± 0.033 with SALINOMYCIN (50 nM), 1.02 ± 0.028 with SALINOMYCIN (100 nM), 0.852 ± 0.031 in the assay with SALINOMYCIN (500 nM) and 0.748 ± 0.037 with SALINOMYCIN (1000 nM).
As to SUM149 BREAST, the surviving fraction worked out at 0.934 ± 0.029 with FLUOROURACIL (0.5 nM); 0.969 ± 0.064 with FLUOROURACIL (1 nM); 0.908 ± 0.028 in the assay with FLUOROURACIL (5 nM); 0.909 ± 0.038 in the assay with FLUOROURACIL (10 nM); 0.872 ± 0.071 in the assay with FLUOROURACIL (50 nM); 0.902 ± 0.063 with FLUOROURACIL (100 nM). For the same test system, the surviving fraction in the assay with FLUOROURACIL (500 nM) is 0.736 ± 0.069; with FLUOROURACIL (1000 nM), 0.597 ± 0.057; in the assay with SALINOMYCIN (0.5 nM) it was 0.981 ± 0.06; with SALINOMYCIN (1 nM), 0.972 ± 0.14; in the assay with SALINOMYCIN (5 nM), 1.02 ± 0.13; in the assay with SALINOMYCIN (10 nM), 0.392 ± 0.03. In addition, the surviving fraction with SALINOMYCIN (50 nM) came out at 1.06 ± 0.092; with SALINOMYCIN (100 nM) it was 0.836 ± 0.052; with SALINOMYCIN (500 nM), 0.424 ± 0.042; in the assay with SALINOMYCIN (1000 nM), 0.356 ± 0.01.
SUM149.B1*.S BREAST: the surviving fraction with FLUOROURACIL (0.5 nM) amounted to 1.1 ± 0.044; in the assay with FLUOROURACIL (1 nM), 1.06 ± 0.043; with FLUOROURACIL (5 nM), 1.12 ± 0.028; with FLUOROURACIL (10 nM) it was 1.04 ± 0.04; with FLUOROURACIL (50 nM), 1.04 ± 0.064; in the assay with FLUOROURACIL (100 nM) it was 0.962 ± 0.034. Also, the surviving fraction amounted to 0.909 ± 0.03 in the assay with FLUOROURACIL (500 nM); 0.812 ± 0.021 with FLUOROURACIL (1000 nM); 1.02 ± 0.052 with SALINOMYCIN (0.5 nM); 0.884 ± 0.057 with SALINOMYCIN (1 nM); 0.955 ± 0.016 with SALINOMYCIN (5 nM); 0.609 ± 0.014 in the assay with SALINOMYCIN (10 nM). Also, the surviving fraction is 0.982 ± 0.051 with SALINOMYCIN (50 nM), 0.768 ± 0.032 with SALINOMYCIN (100 nM), 0.3677 ± 0.0023 with SALINOMYCIN (500 nM) and 0.294 ± 0.016 with SALINOMYCIN (1000 nM).

Values taken from the supplement of paper PMC6045584.
